Assay [1] concerns tissue strips obtained from Landrace pig bladders. Kind of assay: Functional potassium channel opening activity in isolated bladder strips (field-stimulated twitch). The following applies: for EC50 / Emax: Sus scrofa; for EC50: amount causing 50% of the agent's maximal response, read-out: ED50 (the source's name); for Emax: maximal efficacy relative to P1075, field stimulation 0.05 Hz. As for the experimental part:
Compounds were evaluated for functional potassium channel opening activity using tissue strips obtained from Landrace pig bladders.
Landrace pig bladders were obtained from female Landrace pigs of 930 kg. Landrace pigs were euthanized with an intraperitoneal injection of pentobarbital solution, Somlethal®, J. A. Webster Inc., Sterling Mass. The entire bladder was removed and immediately placed into Krebs Ringer bicarbonate solution (composition, mM: NaCl, 120; NaHCO3, 20; dextrose, 11; KCl, 4.7; CaCl2, 2.5; MgSO4, 1.5; KH2PO4, 1.2; K2EDTA, 0.01, equilibrated with 5% CO2/95% O2pH 7.4 at 37° C.). Propranolol (0.004 mM) was included in all of the assays to block β-adrenoceptors. The trigonal and dome portions were discarded. Strips 3-5 mm wide and 20 mm long were prepared from the remaining tissue cut in a circular fashion. The mucosal layer was removed. One end was fixed to a stationary glass rod and the other to a Grass FT03 transducer at a basal preload of 1.0 gram. Two parallel platinum electrodes were included in the stationary glass rod to provide field stimulation of 0.05 Hz, 0.5 milli-seconds at 20 volts. This low frequency stimulation produced a stable twitch response of 100-500 centigrams. Tissues were allowed to equilibrate for at least 60 minutes and primed with 80 mM KCl. A control concentration response curve (cumulative) was generated for each tissue using the potassium channel opener P1075 as the control agonist. […] After a 60 minute rinsing period, a concentration response curve (cumulative) was generated for the test agonist in the same fashion as that used for the control agonist P1075. The maximal efficacy of each compound (expressed as % relative to P1075) is reported. The amount of agent necessary to cause 50% of the agent's maximal response (ED50) was calculated using “ALLFIT” (DeLean et al., Am. J. Physiol., 235, E97 (1980)), hereby incorporated by reference. Agonist potencies were also expressed as an index relative to P1075. The index was calculated by dividing the ED50 for P1075 by the ED50 for the test agonist in a given tissue. Each tissue was used for only one test agonist, and the indices obtained from each tissue were averaged to provide an average index of potency.

Assay [2] relates to primary cultured guinea-pig urinary bladder (GPB) cells. Briefly: Membrane hyperpolarization (MHP) assay, DiBAC(4)3 / FLIPR. Particulars: Cavia porcellus; membrane hyperpolarization in guinea-pig bladder cells. Type of assay: cell-based. Here is the method:
Compounds were evaluated for potassium channel opening activity using primary cultured guinea-pig urinary bladder (GPB) cells.
For the preparation of urinary bladder smooth muscle cells, urinary bladders were removed from male guinea-pigs (Hartley, Charles River, Wilmington, Mass.) weighing 300-400 g and placed in ice-cold Ca^2+-free Krebs solution (composition, mM: KCl, 2.7; KH2PO4, 1.5; NaCl, 75; Na2HPO4, 9.6; Na2HPO4.7H2O, 8; MgSO4, 2; glucose, 5; HEPES, 10; pH 7.4). Cells were isolated by enzymatic dissociation as previously described with minor modifications (Klockner and Isenberg, Pflugers Arch. (1985), 405, 329-339), hereby incorporated by reference. The bladder was cut into small sections and incubated in 5 mL of the Kreb's solution containing 1 mg/mL collagenase (Sigma, St. Louis, Mont.) and 0.2 mg/mL pronase (Calbiochem, La Jolla, Calif.) with continuous stirring in a cell incubator for 30 minutes. The mixture was then centrifuged at 1300× g for 5 minutes, and the pellet resuspended in Dulbecco's PBS (GIBCO, Gaithersburg, Md.) and recentrifuged to remove residual enzyme. The cell pellet was resuspended in 5 mL growth media (composition: Dulbecco's modified Eagle's medium supplemented with 10% fetal bovine serum, 100 units/mL penicillin, 100 units/mL streptomycin and […] amphotericin B) and further dissociated by pipetting the suspension through a flame-polished Pasteur pipette and passing it through a polypropylene mesh membrane (Spectrum, Houston, Tex.). The cell density was adjusted to 100,000 cells/mL by resuspension in growth media. Cells were plated in clear-bottomed black 96-well plates (Packard) for membrane potential studies at a density of 20,000 cells/well and maintained in a cell incubator with 90% air:10% CO2 until confluent. Cells were confirmed to be of smooth muscle type by cytoskeletal staining using a monoclonal mouse anti human-α-smooth muscle actin (Biomeda, Foster City, Calif.).
Functional activity at potassium channels was measured by evaluating changes in membrane potential using the bis-oxonol dye DiBAC(4)3 (Molecular Probes) in a 96-well cell-based kinetic assay system, Fluorescent Imaging Plate Reader (FLIPR) (K. S. Schroeder et al., J. Biomed. Screen., v. 1 pp. 7581 (1996)), hereby incorporated by reference. DiBAC(4)3 is an anionic potentiometric probe which partitions between cells and extracellular solution in a membrane potential-dependent manner. With increasing membrane potential (for example, K^+ depolarization), the probe further partitions into the cell; this is measured as an increase in fluorescence due to dye interaction with intracellular lipids and proteins. Conversely, decreasing membrane potential (hyperpolarization by potassium channel openers) evokes a decrease in fluorescence.
Confluent guinea-pig urinary bladder cells cultured in black clear-bottomed 96-well plates were rinsed twice with […] assay buffer (composition, mM: HEPES, 20; NaCl, 120; KCl, 2; CaCl2, 2; MgCl2, 1; glucose, 5; pH 7.4 at 25° C.) containing 5 μM DiBAC(4)3 and incubated with […] of the buffer in a cell incubator for 30 minutes at 37° C. to ensure dye distribution across the membrane. After recording the baseline fluorescence for 5 minutes, the reference or test compounds, prepared at 10 times the concentration in the assay buffer, were added directly to the wells. Changes in fluorescence were monitored for an additional 25 minutes. Hyperpolarization responses were corrected for any background noise and were normalized to the response observed with 10 μM of the reference compound P1075 (assigned as 100%), a potent opener of smooth muscle KATP channels (Quast et al., Mol. Pharmacol., v. 43 pp. 474-481 (1993)).
Routinely, five concentrations of P1075 or test compounds (log or half-log dilutions) were evaluated and the maximal steady-state hyperpolarization values (expressed as % relative to P1075) plotted as a function of concentration. […]

With `CC(C)(C)C(NC(=O)CCc1ccccc1)Nc1c(Nc2cccnc2)c(=O)c1=O` (centres unmarked) [Example 36, N-(1-{[3,4-dioxo-2-(3-pyridinylamino)-1-cyclobuten-1-yl]amino}-2,2-dimethylpropyl)-3-phenylpropanamide], in assay [1] (Landrace pig bladder strips), the EC50 was found to be 970 nM and the maximal effect (Emax) came out at 99%.
For `COc1cc(OC)cc(C(=O)NC(Nc2c(Nc3cccnc3)c(=O)c2=O)C(C)(C)C)c1` (centres unmarked) [Example 13, N-(1-{[3,4-dioxo-2-(3-pyridinylamino)-1-cyclobuten-1-yl]amino}-2,2-dimethylpropyl)-3,5-dimethoxybenzamide], in that order: 370 nM and 75%.
As for `CC(C)(C)C(NC(=O)c1cccc(Cl)c1)Nc1c(Nc2cccnc2)c(=O)c1=O` (centres unmarked) [Example 5, 3-chloro-N-(1-{[3,4-dioxo-2-(3-pyridinylamino)-1-cyclobuten-1-yl]amino}-2,2-dimethylpropyl)benzamide], in assay [1] (Landrace pig bladder strips), the EC50 amounted to 380 nM and the maximal response (Emax) came out at 98%.
In the case of `CC(C)(C)C(NC(=O)c1cc(F)cc(F)c1)Nc1c(Nc2cccnc2)c(=O)c1=O` (centres unmarked) [Example 16, N-(-1-{[3,4-dioxo-2-(3-pyridinylamino) 1-cyclobuten-1-yl]amino}-2,2-dimethylpropyl)-3,5-difluorobenzamide], in assay [1] (Landrace pig bladder strips), the EC50 turned out to be 3800 nM and the maximal response (Emax) turned out to be 94%.
The molecule `CCC(CC)(CCC#N)C(NC(=O)c1ccc(Cl)cc1)Nc1c(Nc2cccnc2)c(=O)c1=O` (centres unmarked) [Example 19, 4-chloro-N-(4-cyano-1-{[3,4-dioxo-2-(3-pyridinylamino)-1-cyclobuten-1-yl]amino}-2,2-diethylbutyl)benzamide] yielded an EC50 in assay [2] of over 10000 nM.
`C=CCOCC(CC)(COCC=C)C(NC(=O)c1ccc(Cl)cc1)Nc1c(Nc2cccnc2)c(=O)c1=O` (centres unmarked) [Example 20, N-(2,2-bis[(allyloxy)methyl]-1-{[3,4-dioxo-2-(3-pyridinylamino)-1-cyclobuten-1-yl]amino}butyl)-4-chlorobenzamide] yielded an EC50 in assay [2] of 580 nM.
With `O=C(NC(Nc1c(Nc2cccnc2)c(=O)c1=O)C(F)(F)C(F)(F)F)c1cccc(Cl)c1` (centres unmarked) [Example 26, 3-chloro-N-(1-{[3,4-dioxo-2-(3-pyridinylamino)-1-cyclobuten-1-yl]amino}-2,2,3,3,3-pentafluoropropyl)benzamide], in assay [1] (Landrace pig bladder strips), the EC50 amounted to 420 nM and the maximal response (Emax) worked out at 64%.
The molecule `Cc1ccc(C(=O)NC(Nc2c(Nc3cccnc3)c(=O)c2=O)C(C)(C)C)cc1` (centres unmarked) [Example 1, N-(1-{[3,4-dioxo-2-(3-pyridinylamino)-1-cyclobuten-1-yl]amino}-2,2-dimethylpropyl)-4-methylbenzamide] showed an EC50 in assay [2] of 150 nM. Further, in assay [1] (Landrace pig bladder strips), the EC50 amounted to 19000 nM and the maximal effect (Emax) is 54%.
Consider `CCC(C)(C)N=C(NC#N)Nc1cccnc1` [Example P1075, reference compound], for which, in assay [1] (Landrace pig bladder strips, P1075 over 10^−9 to 10^−5 M), the “effect on stimulated twitch / stimulated contractions of the bladder” value is “completely eliminated the stimulated twitch”.
In the case of `CC(C)(C)C(NC(=O)c1cccc(I)c1)Nc1c(Nc2cccnc2)c(=O)c1=O` (centres unmarked) [Example 8, N-(1-{[3,4-dioxo-2-(3-pyridinylamino)-1-cyclobuten-1-yl]amino}-2,2-dimethylpropyl)-3-iodobenzamide], in assay [1] (Landrace pig bladder strips), the EC50 is 2800 nM and the Emax was found to be 84%.
As to `CC(C)(C)C(NC(=O)c1cccc(F)c1)Nc1c(Nc2cccnc2)c(=O)c1=O` (centres unmarked) [Example 7, N-(1-{[3,4-dioxo-2-(3-pyridinylamino)-1-cyclobuten-1-yl]amino}-2,2-dimethylpropyl)-3-fluorobenzamide], in assay [1] (Landrace pig bladder strips), the EC50 stood at 8400 nM and the Emax came to 89%.
For `Cc1cccc(C(=O)NC(Nc2c(Nc3cccnc3Cl)c(=O)c2=O)C(C)(C)C)c1` (centres unmarked) [Example 32, N-[1-({2-[(2-chloro-3-pyridinyl)amino]-3,4-dioxo-1-cyclobuten-1-yl}amino)-2,2-dimethylpropyl]-3-methylbenzamide] the same measures were 1300 nM and 99%.
Turning to `CC(C)(C)C(NC(=O)c1ccc(I)cc1)Nc1c(Nc2cccnc2)c(=O)c1=O` (centres unmarked) [Example 3, N-(1-{[3,4-dioxo-2-(3-pyridinylamino)-1-cyclobuten-1-yl]amino}-2,2-dimethylpropyl)-4-iodobenzamide], in assay [1] (Landrace pig bladder strips), the EC50 was 2200 nM and the Emax was 73%.
With `CCC(CC)C(NC(=O)c1ccc(Cl)cc1)Nc1c(Nc2cccnc2)c(=O)c1=O` (centres unmarked) [Example 21, 4-chloro-N-(1-{[3,4-dioxo-2-(3-pyridinylamino)-1-cyclobuten-1-yl]amino}-2-ethylbutyl)benzamide], in assay [1] (Landrace pig bladder strips), the EC50 turned out to be 4000 nM and the Emax is 68%.
In turn, `CC(C)(Cc1ccccc1)C(NC(=O)c1ccc(Cl)cc1)Nc1c(Nc2cccnc2Cl)c(=O)c1=O` (centres unmarked) [Example 31, 4-chloro-N-[1-({2-[(2-chloro-3-pyridinyl)amino]-3,4-dioxo-1-cyclobuten-1-yl}amino)-2,2-dimethyl-3-phenylpropyl]benzamide] yielded an Index in assay [1] (ED50 for P1075 divided by ED50 for the test agonist in a given tissue, averaged) of 0.039. Also, in assay [1] (Landrace pig bladder strips), the EC50 worked out at 2900 nM and the Emax was determined as 76%.
Take `CC(C)(C)C(NC(=O)c1cc(Cl)cc(Cl)c1)Nc1c(Nc2cccnc2)c(=O)c1=O` (centres unmarked) [Example 12, 3,5-dichloro-N-(1-{[3,4-dioxo-2-(3-pyridinylamino)-1-cyclobuten-1-yl]amino}-2,2-dimethylpropyl)benzamide]: in assay [1] (Landrace pig bladder strips), the EC50 came to 2600 nM and the Emax turned out to be 78%.
Regarding `CC(C)(C)C(NC(=O)c1ccc(Cl)cc1)Nc1c(Nc2cccnc2Cl)c(=O)c1=O` (centres unmarked) [Example 29, 4-chloro-N-[1-({2-[(2-chloro-3-pyridinyl)amino]-3,4-dioxo-1-cyclobuten-1-yl}amino)-2,2-dimethylpropyl]benzamide], in assay [1] (Landrace pig bladder strips), the EC50 was 3000 nM and the Emax came out at 81%.
With `Cc1cccc(C(=O)NC(Nc2c(Nc3cccnc3)c(=O)c2=O)C(C)(C)C)c1` (centres unmarked) [Example 6, N-(1-{[3,4-dioxo-2-(3-pyridinylamino)-1-cyclobuten-1-yl]amino}-2,2-dimethylpropyl)-3-methylbenzamide], in assay [1] (Landrace pig bladder strips), the EC50 stood at 1000 nM and the Emax worked out at 100%.

Source of the values: US20020147230A1, “Aminal Diones as potassium channel openers” (priority 2001, published 2002).
